pKd: −log10 of the molar value.

As usually defined, the pKd is the negative decadic logarithm of the Kd, by convention in mol/L. Lower therefore signals a large Kd.

In assay [1] the target is T1, P-glycoprotein (PGP) (Cricetulus griseus, UniProt P21448).
T1 construct: gene ABCB1; highly purified PGP from CHR B30 cells, labelled with MIANS at two conserved cysteine residues within the Walker A motifs
Briefly: MIANS-PGP fluorescence quenching titration. Type of assay: binding.

Assay [2] concerns the target T2, ABC transporter YvcC (Bacillus subtilis, UniProt O06967).
T2 construct: gene bmrA
T2 sequence (O06967 1-589): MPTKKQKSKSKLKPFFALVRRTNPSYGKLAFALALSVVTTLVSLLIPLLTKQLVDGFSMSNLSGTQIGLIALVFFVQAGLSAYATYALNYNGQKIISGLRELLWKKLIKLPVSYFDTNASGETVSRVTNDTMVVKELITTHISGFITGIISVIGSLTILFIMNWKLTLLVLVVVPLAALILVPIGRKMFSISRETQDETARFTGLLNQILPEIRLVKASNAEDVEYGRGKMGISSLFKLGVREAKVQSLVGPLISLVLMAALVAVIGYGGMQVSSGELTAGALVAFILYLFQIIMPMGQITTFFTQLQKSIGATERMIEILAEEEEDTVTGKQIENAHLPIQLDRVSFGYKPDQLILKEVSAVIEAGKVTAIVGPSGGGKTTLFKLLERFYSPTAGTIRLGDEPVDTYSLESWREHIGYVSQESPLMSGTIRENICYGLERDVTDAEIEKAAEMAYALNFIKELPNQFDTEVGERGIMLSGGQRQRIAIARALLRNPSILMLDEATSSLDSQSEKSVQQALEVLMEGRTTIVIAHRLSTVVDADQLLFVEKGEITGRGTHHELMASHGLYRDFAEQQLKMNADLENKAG
As to the kind of experiment: binding Kd (data not shown; method not stated).

T1 sequence (P21448 whole entry): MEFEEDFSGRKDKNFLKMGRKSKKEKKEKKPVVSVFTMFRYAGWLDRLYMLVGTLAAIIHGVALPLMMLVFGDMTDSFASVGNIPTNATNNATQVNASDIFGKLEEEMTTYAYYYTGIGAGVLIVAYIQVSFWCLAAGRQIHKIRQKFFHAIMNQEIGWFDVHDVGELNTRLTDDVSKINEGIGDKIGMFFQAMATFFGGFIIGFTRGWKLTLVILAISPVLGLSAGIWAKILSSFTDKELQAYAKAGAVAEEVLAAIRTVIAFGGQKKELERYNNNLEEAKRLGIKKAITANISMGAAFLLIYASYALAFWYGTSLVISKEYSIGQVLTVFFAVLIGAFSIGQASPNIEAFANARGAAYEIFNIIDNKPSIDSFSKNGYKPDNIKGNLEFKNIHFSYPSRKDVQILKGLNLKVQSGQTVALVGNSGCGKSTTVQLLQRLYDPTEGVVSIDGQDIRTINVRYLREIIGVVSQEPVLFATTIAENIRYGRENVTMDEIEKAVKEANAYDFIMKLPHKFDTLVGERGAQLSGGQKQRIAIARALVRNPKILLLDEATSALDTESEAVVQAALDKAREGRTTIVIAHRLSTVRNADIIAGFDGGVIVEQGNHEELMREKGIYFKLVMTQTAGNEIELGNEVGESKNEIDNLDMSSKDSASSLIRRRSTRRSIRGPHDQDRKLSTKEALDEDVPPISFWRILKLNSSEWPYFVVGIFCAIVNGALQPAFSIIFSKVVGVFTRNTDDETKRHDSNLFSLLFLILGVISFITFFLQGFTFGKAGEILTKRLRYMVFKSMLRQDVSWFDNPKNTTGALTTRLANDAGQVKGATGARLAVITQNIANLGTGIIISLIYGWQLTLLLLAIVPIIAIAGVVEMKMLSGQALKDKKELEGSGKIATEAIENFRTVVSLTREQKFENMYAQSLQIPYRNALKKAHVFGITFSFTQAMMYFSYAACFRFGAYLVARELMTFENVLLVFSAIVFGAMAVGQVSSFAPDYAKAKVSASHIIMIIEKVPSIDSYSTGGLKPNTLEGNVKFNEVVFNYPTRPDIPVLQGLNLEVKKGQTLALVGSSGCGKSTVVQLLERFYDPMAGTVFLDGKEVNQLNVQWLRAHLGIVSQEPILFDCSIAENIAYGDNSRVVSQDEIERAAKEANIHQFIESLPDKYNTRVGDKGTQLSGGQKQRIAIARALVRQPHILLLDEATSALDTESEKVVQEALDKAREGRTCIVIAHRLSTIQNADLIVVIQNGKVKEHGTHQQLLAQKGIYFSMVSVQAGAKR

For the compound `CCCCCCCCCCCCCCCCOP(=O)([O-])OCC[N+](C)(C)C` [miltefosine], the figures for the pKd in assay [1] and in assay [2] were roughly 5.15 and 5.52 to 5.70, respectively.

The values above are taken from article PMC2363649, “MDR1 causes resistance to the antitumour drug miltefosine” (British Journal of Cancer, 2001).
